Experimental findings from ChEMBL document CHEMBL1149954, “Synthesis of methyl -sialosides N-substituted with large alkanoyl groups, and investigation of their inhibition of agglutination of erythrocytes by influenza A virus” (Bioorg Med Chem Lett, 1993) are described below.

Assay [1] can be described thus: Compound was tested for its ability to displace a fluorescent ligand from the active site of bromelaine-cleaved hemagglutininin (BHA). Set-up: species or system Gallus gallus.
A short description of assay [2]: Compound was tested for the inhibition of hemagglutinination when incorporated into liposomes (Hemagglutinination inhibition (HAI) assay); no inhibition took place.
For assay [3], the species on record is Gallus gallus. The experiment in a line: Compound was tested for its ability to displace a fluorescent ligand from the active site of bromelaine-cleaved hemagglutininin (BHA) at concentrations above 5 mM; no displacement was observed.

As usually defined, the Kd is a measure of binding affinity in units of concentration. `COC(=O)C1(OC)CC(O)C(NC(C)=O)C([C@H](O)[C@H](O)CO)O1` (stereo partly drawn) showed a Kd in assay [1] of 2.8 mM. This counts as millimolar.

The term Ki denotes the equilibrium dissociation constant of an inhibitor or competing ligand from its target. Lower therefore signals tighter binding. Regarding `CCCCCCCCCCCCCC(=O)NC1C(O)CC(OC)(C(=O)O)OC1[C@H](O)[C@H](O)CO` (stereo partly drawn), in assay [2], the Ki is greater than 1 mM.

Take `CCCCCCCC(=O)NC1C(O)CC(OC)(C(=O)O)OC1[C@H](O)[C@H](O)CO` (stereo partly drawn): the Binding affinity result in assay [3] was “no displacement was observed”.
